In brackets after ≈: the same amount, converted by molar mass.
Legend:
Type in all cases: functional
Staphylococcus aureus [1] = assay: Antimicrobial activity against erythromycin-susceptible Staphylococcus aureus PU19 encoded by erm(A) gene
Streptococcus pneumoniae [2] = assay: Antimicrobial activity against erythromycin-resistant Streptococcus pneumoniae PU13 encoded by erm and mef gene
Staphylococcus aureus [3] = assay: Antimicrobial activity against erythromycin-susceptible Staphylococcus aureus PU32 encoded by erm(A) gene
Streptococcus pneumoniae [4] = assay: Antimicrobial activity against erythromycin-resistant Streptococcus pneumoniae PU11 encoded by erm and mef gene
Streptococcus pneumoniae [5] = assay: Antimicrobial activity against erythromycin-susceptible Streptococcus pneumoniae ATCC 49619
Staphylococcus aureus [6] = assay: Antimicrobial activity against erythromycin-susceptible Staphylococcus aureus ATCC 29213

**Q.** How did the MIC (Staphylococcus aureus [1]) turn out when CC[C@H]1OC(=O)[C@H](C)[C@@H](OC/C=C/c2cncc3ccccc23)[C@H](C)[C@@H](O[C@@H]2O[C@H](C)C[C@H](N(C)C)[C@H]2O)[C@](C)(OC)C[C@@H](C)/C(=N\OCc2ccccc2Cl)[C@H](C)[C@H]2OC(=O)O[C@@]21C was run?
**A.** 64 µg/mL (≈ 69.4 µM)

**Q.** And the MIC (Streptococcus pneumoniae [2])?
**A.** 32 µg/mL (≈ 34.7 µM)

**Q.** What about the MIC (Staphylococcus aureus [3]) of the same compound?
**A.** 64 µg/mL (≈ 69.4 µM)

**Q.** And the MIC (Streptococcus pneumoniae [4])?
**A.** 32 µg/mL (≈ 34.7 µM)

**Q.** What about the MIC (Streptococcus pneumoniae [5]) of the same compound?
**A.** 4 µg/mL (≈ 4.34 µM)

**Q.** And the MIC (Staphylococcus aureus [6])?
**A.** 64 µg/mL (≈ 69.4 µM)

**Q.** Which MIC (Staphylococcus aureus [1]) does the source give for CC[C@H]1OC(=O)[C@H](C)[C@@H](O[C@H]2C[C@@](C)(OC)[C@@H](O)[C@H](C)O2)[C@H](C)[C@@H](O[C@@H]2O[C@H](C)C[C@H](N(C)C)[C@H]2O)[C@](C)(OC)C[C@@H](C)C(=O)[C@H](C)[C@@H](O)[C@]1(C)O [CLARITHROMYCIN] here?
**A.** > 256 µg/mL

**Q.** And the MIC (Streptococcus pneumoniae [2])?
**A.** 128 µg/mL (≈ 171 µM)

**Q.** And the MIC (Staphylococcus aureus [3])?
**A.** 128 µg/mL (≈ 171 µM)

**Q.** And the MIC (Streptococcus pneumoniae [4])?
**A.** 128 µg/mL (≈ 171 µM)

**Q.** What about the MIC (Streptococcus pneumoniae [5]) of the same compound?
**A.** 0.032 µg/mL (≈ 0.0428 µM)

**Q.** What about the MIC (Staphylococcus aureus [6]) of the same compound?
**A.** 0.5 µg/mL (≈ 0.668 µM)

**Q.** Which MIC (Staphylococcus aureus [1]) does the source give for CC[C@H]1OC(=O)[C@H](C)[C@@H](O/C=C\Cc2cncc3ccccc23)[C@H](C)[C@@H](O[C@@H]2O[C@H](C)C[C@H](N(C)C)[C@H]2O)[C@](C)(OC)C[C@@H](C)/C(=N\OCc2ccccc2Cl)[C@H](C)[C@H]2OC(=O)O[C@@]21C here?
**A.** 64 µg/mL (≈ 69.4 µM)

**Q.** And the MIC (Streptococcus pneumoniae [2])?
**A.** 32 µg/mL (≈ 34.7 µM)

**Q.** And the MIC (Staphylococcus aureus [3])?
**A.** 32 µg/mL (≈ 34.7 µM)

**Q.** And the MIC (Streptococcus pneumoniae [4])?
**A.** 32 µg/mL (≈ 34.7 µM)

**Q.** And the MIC (Streptococcus pneumoniae [5])?
**A.** 0.25 µg/mL (≈ 0.271 µM)

**Q.** What about the MIC (Staphylococcus aureus [6]) of the same compound?
**A.** 8 µg/mL (≈ 8.67 µM)

**Q.** How did the MIC (Staphylococcus aureus [1]) turn out when CC[C@H]1OC(=O)[C@H](C)[C@@H](O[C@H]2C[C@@](C)(OC)[C@@H](O)[C@H](C)O2)[C@H](C)[C@@H](O[C@@H]2O[C@H](C)C[C@H](N(C)C)[C@H]2O)[C@](C)(O)C[C@@H](C)CN(C)[C@H](C)[C@@H](O)[C@]1(C)O [AZITHROMYCIN] was run?
**A.** > 256 µg/mL

**Q.** And the MIC (Streptococcus pneumoniae [2])?
**A.** 128 µg/mL (≈ 171 µM)

**Q.** And the MIC (Staphylococcus aureus [3])?
**A.** 64 µg/mL (≈ 85.4 µM)

**Q.** What about the MIC (Streptococcus pneumoniae [4]) of the same compound?
**A.** 128 µg/mL (≈ 171 µM)

**Q.** What about the MIC (Streptococcus pneumoniae [5]) of the same compound?
**A.** 0.064 µg/mL (≈ 0.0854 µM)

**Q.** And the MIC (Staphylococcus aureus [6])?
**A.** 0.5 µg/mL (≈ 0.668 µM)
